Reference: patent US20180062087A1, “Organic Compound, Organic Semiconductor Material, Organic Thin Film And Method For Producing The Same, Organic Semiconductor Composition, And Organic Semiconductor Device” (Nippon Kayaku Kabushiki Kaisha, priority 2015, published 2018)

Assay: Differential scanning calorimetry (transition point, heat resistance)
Format: physicochemical
Details: DSC endothermic peak indicating phase transition; powder in aluminum pan heated up to 550° C.
Method: In the following examples, reactions and measurements in an inert gas atmosphere were conducted with use of a solvent obtained by anhydrous distillation, and other reactions and operations were conducted with use of commercial Grade 1 or Special Grade solvents. The reagents were purified, as required, by anhydrous distillation or the like, and otherwise commercially available Grade 1 or Special Grade reagents were employed. In the examples, following analytical instrument and measurement instrument were employed. The nuclear magnetic resonance spectroscopy was conducted by means of LAMBDA-NMR (395.75 MHz, σ value, ppm, internal standard TMS). The differential scanning calorimetry was conducted by means of a differential scanning calorimeter METTLER-TOLED DSC1.
About 2 mg of each organic compound powder was weighed out and fed hermetically in an aluminum pan. Each sample was set on a differential scanning calorimeter and heated up to 550° C.

SMILES	Peak top temperature [°C]
CCCCCCCCCCc1ccc2c(c1)sc1c3ccc(-c4ccccc4)cc3sc21 [Comp. Ex. 3, reference compound]	≤ 150
CCCCc1ccc2sc3c4cc5cc(-c6ccccc6)ccc5cc4sc3c2c1 [Organic compound 4]	218
CCCCCCc1ccc2cc3sc4c5cc(-c6ccc(CC)cc6)ccc5sc4c3cc2c1 [Organic compound 8]	229
CCCCCc1ccc(-c2ccc3sc4c5cc6cc(-c7ccccc7)ccc6cc5sc4c3c2)cc1 [Organic compound 9]	244

Results, then the compound that gave them:

Peak top temperature [°C]	SMILES
186	CCCCCCCCc1ccc2sc3c4cc5cc(-c6ccccc6)ccc5cc4sc3c2c1 [Organic compound 5]
185	CCCCCCCCCCc1ccc2cc3sc4c5cc(-c6ccccc6)ccc5sc4c3cc2c1 [Organic compound 6]

Assay: Measurement of solubility in organic solvents at 25° C.
Format: physicochemical
Details: at the maximum; versus Comparative example 2
Method: (§1) About 1 mg of each organic compound powder was weighed and fed into vials, and the weight of the content in each vial was measured precisely. Into these vials, chloroform, toluene, and tetrahydronaphthalene (THN) were added at 25° C. (room temperature). When the added solvent dissolved completely, the mass was measured precisely again. The mass of the organic compound was divided by the total weight of the organic compound and the added solvent, and was multiplied by 100 to obtain solubility. Dissolution or non-dissolution was judged by visual inspection.

Solubility in the organic solvent at 25° C. relative to the organic compound in Comparative example 2 [times]	SMILES
≥ 10	CCCCCCc1ccc2cc3sc4c5cc(-c6ccccc6)ccc5sc4c3cc2c1 [Organic compound 1]

Same assay, conditions: chloroform, 25° C., visual inspection

SMILES	Solubility in organic solvent at 25° C., chloroform [mass %]
CCCCc1ccc2sc3c4cc5cc(-c6ccccc6)ccc5cc4sc3c2c1 [Organic compound 4]	0.5
CCCCCCc1ccc2cc3sc4c5cc(-c6ccc(CC)cc6)ccc5sc4c3cc2c1 [Organic compound 8]	>2

Next, values leading:

Solubility in organic solvent at 25° C., chloroform [mass %]	SMILES
0.4	CCCCCCCCc1ccc2sc3c4cc5cc(-c6ccccc6)ccc5cc4sc3c2c1 [Organic compound 5]
0.3	CCCCCCCCCCc1ccc2cc3sc4c5cc(-c6ccccc6)ccc5sc4c3cc2c1 [Organic compound 6]

Same assay, conditions: organic solvent, 25° C.; versus Comparative example 1

Solubility compared with the organic compound in Comparative example 1	SMILES
higher solubility	CCCCCCc1ccc2cc3sc4c5cc(-c6ccccc6)ccc5sc4c3cc2c1 [Organic compound 1]

Same assay, conditions: tetrahydronaphthalene (THN), 25° C., visual inspection

SMILES	Solubility in organic solvent at 25° C., THN [mass %]
CCCCc1ccc2sc3c4cc5cc(-c6ccccc6)ccc5cc4sc3c2c1 [Organic compound 4]	0.5
CCCCCCc1ccc2cc3sc4c5cc(-c6ccc(CC)cc6)ccc5sc4c3cc2c1 [Organic compound 8]	1.4

More lines, now with the values ahead:

Solubility in organic solvent at 25° C., THN [mass %]	SMILES
0.4	CCCCCCCCc1ccc2sc3c4cc5cc(-c6ccccc6)ccc5cc4sc3c2c1 [Organic compound 5]
0.3	CCCCCCCCCCc1ccc2cc3sc4c5cc(-c6ccccc6)ccc5sc4c3cc2c1 [Organic compound 6]

Same assay, conditions: toluene, 25° C., visual inspection

SMILES	Solubility in organic solvent at 25° C., toluene [mass %]
CCCCc1ccc2sc3c4cc5cc(-c6ccccc6)ccc5cc4sc3c2c1 [Organic compound 4]	0.5
CCCCCCc1ccc2cc3sc4c5cc(-c6ccc(CC)cc6)ccc5sc4c3cc2c1 [Organic compound 8]	0.9

Now from value to compound:

Solubility in organic solvent at 25° C., toluene [mass %]	SMILES
0.4	CCCCCCCCc1ccc2sc3c4cc5cc(-c6ccccc6)ccc5cc4sc3c2c1 [Organic compound 5]
0.2	CCCCCCCCCCc1ccc2cc3sc4c5cc(-c6ccccc6)ccc5sc4c3cc2c1 [Organic compound 6]

Assay: Storage stability in a solution state (solution state after one week)
Format: physicochemical
Details: solutions of the solubility test
Source text: The organic compound represented by Formula (A) is required to be soluble in an organic solvent. The organic solvent is not particularly limited as far as being capable of dissolving the organic compound represented by Formula (A). Considering environmental problems and other conditions, the organic solvent is preferably and practically a non-halogenated solvent. Further, considering the stability of a solution obtained by dissolving the organic compound represented by Formula (A) in the organic solvent, the organic compound represented by Formula (A) needs to have reasonably high solubility at room temperature. In the organic solvent, the solubility of the organic compound represented by Formula (A) at 25° C. is usually 0.1 mass % or higher, preferably 0.3 mass % or higher, more preferably 0.5 mass % or higher, and further preferably 0.7 mass % or higher. In chloroform, the solubility of the organic compound represented by Formula (A) at 25° C. is usually 0.1 mass % or higher, preferably 0.3 mass % or higher, more preferably 0.5 mass % or higher, and further preferably 0.7 mass % or higher. In toluene, the solubility of the organic compound represented by Formula (A) at 25° C. is usually 0.1 mass % or higher, preferably 0.3 mass % or higher, more preferably 0.5 mass % or higher, and further preferably 0.7 mass % or higher. In tetrahydronaphthalene, the solubility of the organic compound represented by Formula (A) at 25° C. is usually 0.1 mass % or higher, preferably 0.3 mass % or higher, more preferably 0.5 mass % or higher, and further preferably 0.7 mass % or higher.
as §1

SMILES	Solution state after one week
CCCCc1ccc2sc3c4cc5cc(-c6ccccc6)ccc5cc4sc3c2c1 [Organic compound 4]	no precipitation
CCCCCCc1ccc2cc3sc4c5cc(-c6ccc(CC)cc6)ccc5sc4c3cc2c1 [Organic compound 8]	no precipitation

Results, then the compound that gave them:

Solution state after one week	SMILES
no precipitation	CCCCCCCCc1ccc2sc3c4cc5cc(-c6ccccc6)ccc5cc4sc3c2c1 [Organic compound 5]
no precipitation	CCCCCCCCCCc1ccc2cc3sc4c5cc(-c6ccccc6)ccc5sc4c3cc2c1 [Organic compound 6]
